Our source for the Kd values is PubChem BioAssay AID624108 (Broad Institute, 2012).

For orientation: Kd means the free concentration of one partner at which half of the binding sites on the other are occupied at equilibrium, for simple one-to-one binding.

The source made the active and inactive calls. No rule for the calls is given here. Where only a bound is given, the exact number is not on record here.

Glycogen synthase kinase-3 beta (Homo sapiens), sequence (P49841 whole entry, looked up): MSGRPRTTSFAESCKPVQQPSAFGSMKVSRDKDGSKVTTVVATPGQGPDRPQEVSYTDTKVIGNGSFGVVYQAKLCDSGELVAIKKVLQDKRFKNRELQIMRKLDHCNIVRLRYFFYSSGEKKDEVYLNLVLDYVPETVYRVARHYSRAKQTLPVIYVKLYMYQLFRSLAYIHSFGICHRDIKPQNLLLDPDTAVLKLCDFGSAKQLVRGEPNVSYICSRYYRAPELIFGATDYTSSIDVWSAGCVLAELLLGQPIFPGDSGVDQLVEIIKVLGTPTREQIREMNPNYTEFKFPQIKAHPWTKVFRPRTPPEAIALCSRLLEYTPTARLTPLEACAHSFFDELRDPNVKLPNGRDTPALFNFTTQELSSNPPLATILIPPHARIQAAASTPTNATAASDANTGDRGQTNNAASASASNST

The experiment concerns the target Glycogen synthase kinase-3 beta (Homo sapiens) (UniProt P49841). Briefly: binding affinity to recombinant GSK3beta – biophysical, surface plasmon resonance, microfluidics, dry powder samples, dose response (AID 624108). Background: Surface plasmon resonance follows binding to a sensor surface in real time, without labels.
As to `COc1ccccc1/C=C1\C(=O)CC(C)(C)CC1=Nc1cc(C(F)(F)F)[nH]n1`, the Kd was > 5000 nM (inactive).
The same measure for `Cc1[nH]nc2c1C(c1ccccc1C#N)C1=C(CC(C)(C)CC1=O)N2` (configuration not stated): > 5000 nM (inactive).
In the case of `COc1ccccc1C1C2=C(CCCC2=O)Nc2n[nH]c(C)c21` (configuration not stated) it was > 5000 nM (inactive); in that of `Cc1ccc(C2C3=C(CC(C)(C)CC3=O)Nc3n[nH]c(C)c32)cc1` (configuration not stated), “inactive”.
In the case of `COc1ccccc1[C@H]1C2=C(CC(C)(C)CC2=O)Nc2n[nH]c(C(F)(F)F)c21` it was “inactive”.
`CCc1[nH]nc2c1C(c1ccccc1OC)C1=C(CC(C)(C)CC1=O)N2` (configuration not stated): the Kd was > 5000 nM (inactive).
The same measure for `Cc1ccccc1C1C2=C(CC(C)(C)CC2=O)Nc2n[nH]c(C)c21` (configuration not stated): 223 nM.
In the case of `CC1(C)CC(=O)C2=C(C1)Nc1n[nH]c(C(F)(F)F)c1C2c1cccc(F)c1C(F)(F)F` (configuration not stated) it was 822 nM; in that of `CC1(C)CC(=O)C2=C(C1)Nc1n[nH]c(C(F)(F)F)c1C2c1ccccc1` (configuration not stated), 113 nM; in that of `Cc1[nH]nc2c1C(c1cccc(C#N)c1)C1=C(CC(C)(C)CC1=O)N2` (configuration not stated), 331 nM.
As for `Cc1[nH]nc2c1C(c1cccs1)C1C(=O)CC(C)(C)CC1=N2` (configuration not stated), the dissociation constant Kd is 420 nM.
The same measure for `CC1(C)CC(=O)C2=C(C1)Nc1n[nH]c(C(F)(F)F)c1C2c1c(F)cccc1F` (configuration not stated): > 5000 nM (inactive).
The same measure for `Cc1[nH]nc2c1C(c1ccc3c(c1)OCO3)C1=C(CC(C)(C)CC1=O)N2` (configuration not stated): “inactive”.
The same measure for `Cc1[nH]nc2c1C(c1cccc(C(F)(F)F)c1)C1=C(CC(C)(C)CC1=O)N2` (configuration not stated): “inactive”.
For `Cc1[nH]nc2c1C(c1ccc(C#N)cc1)C1=C(CC(C)(C)CC1=O)N2` (configuration not stated), the Kd entry was “inactive”.
The same measure for `Cc1[nH]nc2c1C(c1ccc(F)cc1)C1=C(CC(C)(C)CC1=O)N2` (configuration not stated): “inactive”; for `Cc1[nH]nc2c1C(c1ccn[nH]1)C1=C(CC(C)(C)CC1=O)N2` (configuration not stated): > 5000 nM (inactive).
In the case of `Cc1[nH]nc2c1C(c1ccccc1Br)C1=C(CC(C)(C)CC1=O)N2` (configuration not stated) it was 40 nM; in that of `Cc1[nH]nc2c1C(C)(c1ccccc1)C1=C(CC(C)(C)CC1=O)N2` (configuration not stated), 149 nM; in that of `CC1(C)CC(=O)C2=C(C1)Nc1n[nH]c(C(F)(F)F)c1C2(C)c1ccccc1` (configuration not stated), > 5000 nM (inactive).
The same measure for `Cc1[nH]nc2c1[C@@H](c1cccs1)C1=C(CC(C)(C)CC1=O)N2`: > 5000 nM (inactive).
`Cc1[nH]nc2c1C(C1CC1)C1=C(CC(C)(C)CC1=O)N2` (configuration not stated): the Kd was > 5000 nM (inactive).
The same measure for `COc1ccccc1C1C2=C(CC(C)(C)CC2=O)Nc2n[nH]c(C(F)(F)F)c21` (configuration not stated): 102 nM; for `COc1ccccc1C1C2=C(CC(C)(C)CC2=O)Nc2n[nH]c(C(C)(C)C)c21` (configuration not stated): 585 nM.
In the case of `COc1ccccc1-c1c2c(nc3n[nH]c(C)c13)CCC2=O` it was > 5000 nM (inactive); in that of `Cc1[nH]nc2c1C(c1ccsc1)C1=C(CC(C)(C)CC1=O)N2` (configuration not stated), 450 nM; in that of `CC1(C)CC(=O)C2=C(C1)Nc1n[nH]c(C(F)(F)F)c1C2c1ccc(F)cc1C(F)(F)F` (configuration not stated), 202 nM.
Turning to `Cc1[nH]nc2c1C(c1ccccc1Cl)C1=C(CC(C)(C)CC1=O)N2` (configuration not stated), the Kd is 890 nM.
In the case of `CC1(C)CC(=O)C2=C(C1)Nc1n[nH]c(C(F)(F)F)c1C2c1cc(F)ccc1OC(F)(F)F` (configuration not stated) it was 627 nM; in that of `CC1(C)CC(=O)C2=C(C1)Nc1n[nH]c(C(F)(F)F)c1C2c1ccccc1C(F)(F)F` (configuration not stated), 122 nM; in that of `Cc1[nH]nc2c1[C@H](c1ccccc1C(F)(F)F)C1=C(CC(C)(C)CC1=O)N2`, 15 nM.
In the case of `Cc1[nH]nc2c1C(c1cccnc1)C1=C(CC(C)(C)CC1=O)N2` (configuration not stated) it was 270 nM.
The same measure for `CC1(C)CC(=O)C2=C(C1)Nc1n[nH]c(C(F)(F)F)c1C2c1cc(F)ccc1F` (configuration not stated): 424 nM.
Turning to `COc1ccccc1C1C2=C(CC(C)(C)CC2=O)Nc2n[nH]c(-c3ccccc3)c21` (configuration not stated), the Kd result was “inactive”.
In the case of `COc1ccccc1C1C2=C(CC3(CCCCC3)CC2=O)Nc2n[nH]c(C)c21` (configuration not stated) it was > 5000 nM (inactive); in that of `COc1ccccc1C1C2=C(CC(C)(C)CC2=O)Nc2onc(C)c21` (configuration not stated), > 5000 nM (inactive); in that of `Cc1[nH]nc2c1C(c1cccc3nonc13)C1=C(CC(C)(C)CC1=O)N2` (configuration not stated), > 5000 nM (inactive).
The same measure for `Cc1[nH]nc2c1[C@H](c1cccs1)C1=C(CC(C)(C)CC1=O)N2`: 421 nM; for `Cc1[nH]nc2nc3c(c(-c4ccccc4)c12)C(=O)CC(C)(C)C3`: 13 nM.
The same measure for `COc1ccccc1C1C2=C(CC(C)(C)CC2=O)Nc2[nH]ncc21` (configuration not stated): 173 nM; for `Cc1[nH]nc2c1C(c1ccc(Cl)s1)C1=C(CC(C)(C)CC1=O)N2` (configuration not stated): 520 nM.
Take `Cc1[nH]nc2c1C(c1cccc(Cl)c1)C1=C(CC(C)(C)CC1=O)N2` (configuration not stated): the Kd is 360 nM.
The same measure for `Cc1[nH]nc2c1C(c1ccc(Cl)cc1)C1=C(CC(C)(C)CC1=O)N2` (configuration not stated): “inactive”; for `Cc1[nH]nc2c1C(c1ccccn1)C1=C(CC(C)(C)CC1=O)N2` (configuration not stated): 390 nM; for `Cc1[nH]nc2c1C(c1cccc(F)c1)C1=C(CC(C)(C)CC1=O)N2` (configuration not stated): “inactive”.
In the case of `COc1ccccc1C1C2=C(CC(C)(C)CC2=O)Nc2n[nH]c(C)c21` (configuration not stated) it was 60 nM.
In the case of `COc1ccccc1[C@@H]1C2=C(CC(C)(C)CC2=O)Nc2n[nH]c(C(F)(F)F)c21` it was 31 nM; in that of `Cc1[nH]nc2c1C(c1ccccc1C(F)(F)F)C1=C(CC(C)(C)CC1=O)N2` (configuration not stated), 49 nM.
As to `Cc1[nH]nc2c1C(c1ccc(Br)cn1)C1=C(CC(C)(C)CC1=O)N2` (configuration not stated), the Kd was > 5000 nM (inactive).
In the case of `COc1ccccc1C1C(C(C)=O)=C(C)Nc2n[nH]c(C)c21` (configuration not stated) it was > 5000 nM (inactive); in that of `Cc1[nH]nc2c1C(C1CCCCC1)C1=C(CC(C)(C)CC1=O)N2` (configuration not stated), > 5000 nM (inactive); in that of `CC1(C)CC(=O)/C(=C\c2ccccc2C(F)(F)F)C(=Nc2cc(C(F)(F)F)[nH]n2)C1`, > 5000 nM (inactive).
In the case of `COc1ccccc1C1C2=C(CC(C)(C)CC2=O)Nc2ccccc21` (configuration not stated) it was > 5000 nM (inactive).
As for `Cc1cccc(C2C3=C(CC(C)(C)CC3=O)Nc3n[nH]c(C)c32)c1` (configuration not stated), the Kd is 802 nM.
The same measure for `CC1(C)CC(=O)/C(=C\c2cccc(F)c2C(F)(F)F)C(=Nc2cc(C(F)(F)F)[nH]n2)C1`: 40 nM; for `CC1(C)CC(=O)C2=C(C1)Nc1n[nH]c(C(F)(F)F)c1C2c1ccccc1F` (configuration not stated): > 5000 nM (inactive).
Regarding `COc1ccc(C2C3=C(CC(C)(C)CC3=O)Nc3n[nH]c(C)c32)cc1` (configuration not stated), the Kd entry was “inactive”.
The same measure for `COc1cccc(C2C3=C(CC(C)(C)CC3=O)Nc3n[nH]c(C)c32)c1` (configuration not stated): > 5000 nM (inactive).
With `Cc1[nH]nc2c1C(c1ccc(C(F)(F)F)cc1)C1=C(CC(C)(C)CC1=O)N2` (configuration not stated), the Kd was 368 nM.
In the case of `Cc1[nH]nc2nc3c(c(-c4cccs4)c12)C(=O)CC(C)(C)C3` it was 24 nM; in that of `COc1ccccc1C1C2=C(CCC(C)(C)C2=O)Nc2n[nH]c(C)c21` (configuration not stated), 305 nM.
The same measure for `Cc1[nH]nc2nc3c(cc12)C(=O)CC(C)(C)C3`: > 5000 nM (inactive); for `Cc1[nH]nc2c1C(c1ccc(F)cc1Cl)C1=C(CC(C)(C)CC1=O)N2` (configuration not stated): > 5000 nM (inactive).
The same measure for `Cc1[nH]nc2c1[C@@H](c1ccccc1C(F)(F)F)C1=C(CC(C)(C)CC1=O)N2`: > 5000 nM (inactive).
In the case of `Cc1[nH]nc2c1C(C)C1=C(CC(C)(C)CC1=O)N2` (configuration not stated), the Kd is > 5000 nM (inactive).
For the molecule `COc1ccccc1C1C2=C(CC(C)(C)CC2=O)Nc2n[nH]c(C(C)C)c21` (configuration not stated), the Kd entry was “inactive”.
In the case of `CC1(C)CC(=O)C2=C(C1)Nc1n[nH]c(C(F)(F)F)c1C2c1cc(F)ccc1C(F)(F)F` (configuration not stated) it was 150 nM.
